The subject of test [1] is nicotinic acetylcholine receptors (NAChR).
Experimental: The cells were plated and loaded with the fluorescent dye Fluo-3 and the assays were carried out substantially as described in the modified method of Example 3A except that the nicotinic receptors of the cells were activated.
Test [2] relates to muscarinic acetylcholine receptors (MAChRs).
The subject of test [3] is voltage-dependent calcium channels.
Experimental: (§1) SHSY5Y cells, induced for six days with 10 μM retinoic acid (Sigma), and IMR32 cells, induced for ten days with 1 mM dibutyryl cAMP (dbcAMP) and 2.5 μM bromodeoxyuridine (BrdU) (both from Boehringer-Mannheim, Indianapolis, IN) were treated with various calcium channel interactive drugs before kCl depolarization and measurement of fluorescence.
For test [4] the test system is unchanged. This is another data set of the same source.
Experimental: as §1
Test [5] has as its target human neuronal calcium channel α1D, α2 and β subunits (Homo sapiens, UniProt Q01668). Conditions: 13old cells; 50 mM KCl.
Experimental: The assays were conducted using the fully automated version of the assay, as described for analysis of calcium channels in positive control IMR32 and SHSY5Y cells. Fluorescence was measured prior to addition of KCl to the cells to record pre-reagent fluorescence, i.e., noise, fluorescence. Signal fluorescence is the maximal fluorescence recorded after addition of KCl to the cells.
The automated assays were performed as described for analysis of calcium channel activity of IMR32 and SHSY5Y cells. For each dose-dependence assay, different wells of the microtiter plate received different concentrations of the agonist or antagonist, the background fluorescence was measured, and. […] Repeated fluorescence measurements were made before and after KCl addition and the values were recorded. A total of five fluorescence readings were taken before KCl addition. […] The plate was then automatically repositioned at the fluorescence measuring position (a delay of two seconds was measured between reagent addition and the first fluorescence measurement after reagent addition) and 125 fluorescence measurements were taken and values were recorded. […]
Dose-response curves were generated from the fluorescence data. In constructing these curves, the fluorescence value recorded in the presence of each concentration of compound was plotted as the percent maximum fluorescence vs. concentration. […]

Like-named read-outs stand apart in the source and are kept apart here.

Chain of human neuronal calcium channel α1D, α2 and β subunits (Q01668 whole entry): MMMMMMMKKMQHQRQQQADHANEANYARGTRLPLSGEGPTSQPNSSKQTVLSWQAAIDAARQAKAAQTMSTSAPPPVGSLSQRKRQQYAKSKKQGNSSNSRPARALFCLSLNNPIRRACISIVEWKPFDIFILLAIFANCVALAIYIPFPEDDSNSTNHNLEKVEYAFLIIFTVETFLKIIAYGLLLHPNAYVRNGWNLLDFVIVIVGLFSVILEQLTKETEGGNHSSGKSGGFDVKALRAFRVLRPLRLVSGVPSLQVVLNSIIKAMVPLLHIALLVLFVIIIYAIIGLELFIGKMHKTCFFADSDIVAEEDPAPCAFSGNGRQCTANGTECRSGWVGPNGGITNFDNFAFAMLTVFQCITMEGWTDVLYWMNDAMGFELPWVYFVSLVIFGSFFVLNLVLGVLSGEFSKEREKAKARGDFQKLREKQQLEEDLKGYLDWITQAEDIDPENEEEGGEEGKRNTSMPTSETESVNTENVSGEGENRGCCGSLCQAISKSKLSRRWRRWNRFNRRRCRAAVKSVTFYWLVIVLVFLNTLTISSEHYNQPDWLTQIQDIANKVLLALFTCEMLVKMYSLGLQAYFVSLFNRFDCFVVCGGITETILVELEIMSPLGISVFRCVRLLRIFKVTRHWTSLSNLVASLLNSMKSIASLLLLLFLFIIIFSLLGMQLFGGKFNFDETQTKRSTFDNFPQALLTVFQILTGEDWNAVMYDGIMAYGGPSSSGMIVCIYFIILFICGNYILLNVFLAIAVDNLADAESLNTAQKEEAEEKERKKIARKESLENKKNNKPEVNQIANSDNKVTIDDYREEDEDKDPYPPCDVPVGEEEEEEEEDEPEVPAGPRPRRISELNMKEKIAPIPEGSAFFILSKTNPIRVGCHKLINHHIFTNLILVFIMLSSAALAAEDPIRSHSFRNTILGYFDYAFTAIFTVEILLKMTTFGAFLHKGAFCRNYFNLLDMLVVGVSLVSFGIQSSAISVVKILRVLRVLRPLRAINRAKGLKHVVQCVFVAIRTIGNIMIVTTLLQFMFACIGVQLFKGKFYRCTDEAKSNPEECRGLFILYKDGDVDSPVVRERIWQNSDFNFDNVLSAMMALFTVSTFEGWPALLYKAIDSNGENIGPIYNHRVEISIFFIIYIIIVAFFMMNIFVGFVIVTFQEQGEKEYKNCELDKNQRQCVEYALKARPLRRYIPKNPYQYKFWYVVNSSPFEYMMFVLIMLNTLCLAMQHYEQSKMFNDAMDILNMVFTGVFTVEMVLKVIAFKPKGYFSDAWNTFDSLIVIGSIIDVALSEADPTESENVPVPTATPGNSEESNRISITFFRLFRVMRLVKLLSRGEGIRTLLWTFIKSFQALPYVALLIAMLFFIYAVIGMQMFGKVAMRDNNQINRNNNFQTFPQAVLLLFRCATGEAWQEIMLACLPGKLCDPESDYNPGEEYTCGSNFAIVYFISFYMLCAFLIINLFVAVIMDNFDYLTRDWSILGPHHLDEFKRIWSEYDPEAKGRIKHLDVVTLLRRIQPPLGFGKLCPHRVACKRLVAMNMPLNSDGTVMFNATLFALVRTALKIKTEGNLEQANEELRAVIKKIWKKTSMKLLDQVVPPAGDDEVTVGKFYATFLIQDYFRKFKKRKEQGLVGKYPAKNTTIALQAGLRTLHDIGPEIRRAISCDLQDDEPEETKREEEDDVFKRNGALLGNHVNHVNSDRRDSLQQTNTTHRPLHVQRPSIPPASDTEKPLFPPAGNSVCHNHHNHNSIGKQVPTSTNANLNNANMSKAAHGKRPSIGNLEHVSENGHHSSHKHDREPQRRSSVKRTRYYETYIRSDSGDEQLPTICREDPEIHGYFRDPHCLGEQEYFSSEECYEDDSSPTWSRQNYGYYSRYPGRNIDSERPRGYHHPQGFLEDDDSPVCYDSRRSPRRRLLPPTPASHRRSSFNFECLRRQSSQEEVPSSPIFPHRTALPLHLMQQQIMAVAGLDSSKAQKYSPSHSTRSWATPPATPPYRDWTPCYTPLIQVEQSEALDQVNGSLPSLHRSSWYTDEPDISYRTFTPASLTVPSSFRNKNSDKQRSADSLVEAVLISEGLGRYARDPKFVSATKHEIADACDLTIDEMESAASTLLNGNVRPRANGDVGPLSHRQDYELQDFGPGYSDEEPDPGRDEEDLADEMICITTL

As to `C[N+](C)(C)CCCCCC[N+](C)(C)C` [hexamethonium], the “Fluorescence S/N ratio” value in test [1] is 1.0.
In the case of `CNC1(C)C2CCC(C2)C1(C)C` (stereo not shown) [mecamylamine], the “Fluorescence S/N ratio” value in test [1] came to 1.0.
In the case of `CN1CCCC1c1cccnc1` (stereo not shown) [nicotine], the “Fluorescence S/N ratio” value in test [1] (IMR32 cells, 200 μM agonist alone, Equation 2) came out at 2.3.
`CN1[C@@H]2C[C@@H](OC(=O)[C@H](CO)c3ccccc3)C[C@H]1[C@@H]1O[C@@H]12` [scopolamine]: the “Fluorescence S/N ratio” value in test [2] is recorded as 1.0.
Consider Bay K 8644 [BayK 8644], for which the “Fluorescence Signal to Noise Ratio” value in test [3] (SHSY5Y, 50 mM KCl and 1 μM compound) is on record as 2.7; in test [4] (IMR32, 50 mM KCl and 1 μM compound), 2.5. The “Concentration at which potentiation of the fluorescence response to KCl was maximal” value in test [5] was 100 nM.
On to D-tubocurarine [DTC], for which, in test [1], the “Fluorescence S/N ratio” value was 1.0.
As to KCl [KC1], the “Fluorescence Signal to Noise Ratio” value in test [3] (SHSY5Y (retinoic acid induced), 50 mM KCl alone) amounted to 1.9; in test [4] (IMR32 (dbcAMP/BrdU induced), 50 mM KCl alone), 2.3.
For cadmium, the “Fluorescence Signal to Noise Ratio” value in test [3] (SHSY5Y, 50 mM KCl and 200 μM compound) was found to be 1.0; in test [4] (IMR32, 50 mM KCl and 200 μM compound), 1.0.
For omega-CgTx, the “Inhibition of the KCl-induced fluorescence increase (in words)” value in test [5] is on record as “did not completely inhibit”.

The values above are taken from patent US6372183B1 (priority 1991, dated 2002).
